For one experiment, the system named is Pfeiffer cells. In words: In vitro anti-tumor cell growth assay (CellTiter-Glo), Pfeiffer. Format: cell-based. Conditions: Homo sapiens, 120 h; Pfeiffer cells (A677G mutant), 5 days; read-out: IC50 for inhibiting the growth activity of tumor cells (Pfeiffer) in vitro. The procedure: Test Example 2. Assay for Determining In Vitro Anti-Tumor Cell Growth Activity of the Example Compounds of the Present Invention
This method was used to determinate the inhibitory effect of the compounds of the present invention on the growth activity of tumor cells (Pfeiffer or WSU-DLCL2) in vitro. Pfeiffer cells carry A677G mutant, and WSU-DLCL2 cells carry Y641F mutant.
The lymphoma suspension cell line (Pfeiffer or WSU-DLCL2) was cultured in a RPMI-1640 medium containing 10% inactivated Fetal Bovine Serum, 100 U/mL penicillin, and 100 μg/mL streptomycin, and incubated in an incubator with 5% carbon dioxide at 37° C. under a saturated humidity condition, and passaged every 3-4 days.
A cell sudpension was prepared with a fresh cell medium, added to a 96-well cell culture plate at 8000 cells/well (Pfeiffer) or 2000 cells/well (WSU-DLCL2), and incubated in 5% carbon dioxide at 37° C. incubator overnight. On the day of the experiment, the EZH2 test compounds (final concentration: 20000, 2000, 200, 20, 2, 0.2 nM) were added into the experimental wells for 3 parallel wells per group. A control well with the medium alone but without cells was set up to obtain the background luminescent value. The cell culture plate was incubated in an incubator with 5% carbon dioxide at 37° C. for 5 days.
After the compounds were applied to the cells for 5 days, the cell culture plate was placed at room temperature for 30 minutes, then a CellTiter-Glo reagent equal to the volume of cell culture medium was added to each well. The contents were mixed on a shaker for 10 minutes, and the […] signal values were recorded. The cell growth inhibition rate was calculated, and the formula was: cell growth inhibiton rate=[(negative control control−experimental group)/(negative control group−background luminescent value)]×100%. The IC50 values (half inhibition rate IC50, i.e., a drug concentration that is required for 50% cell growth inhibition rate) were calculated by software from the cell growth inhibiton rate and the corresponding concentration.
A general note: Cellular ATP, detected with luciferase, serves as a proxy for viable cell number.

In another experiment the target is EZH2-A677G (Homo sapiens (Human), UniProt Q15910, A677G). Description: EZH2-A677G mutant enzyme activity assay (HTRF). Particulars: read-out: IC50 for inhibiting the activity of enzyme EZH2-A677G. Format: biochemical. The procedure: Histone H3 biotin labeling and S-adenosyl methionine were respectively diluted to 50 nM and 50 μM with a kinase buffer, then added to a 384-well plate at 4 μl/well. The test compound was diluted with a kinase buffer (it was diluted from the highest concentration 30 μM in 10 fold concentration gradient to 7 concentration points), then added to the 384-well microtiter plate at 4 μl/well. The plate was incubated at room temperature for 2 hours. Histone H3K27 Me3 monoclonal antibody and Streptavidin-XL665 were diluted to 30 nM and 500 nM by HTRF detection buffer, then added to the 384-well microplate at 10 µl/well and incubated for 1 hour. A well without an EZH2 enzyme and a compound was used as a negative control, and a well with an EZH2 enzyme but without a compound was used as a positive control. […] The compound logarithm concentration vs the inhibition percentage relative to the positive control well was plotted using GraphPad Prism, then the IC50 values were calculated.
Chain of EZH2-A677G (Q15910 whole entry A677G): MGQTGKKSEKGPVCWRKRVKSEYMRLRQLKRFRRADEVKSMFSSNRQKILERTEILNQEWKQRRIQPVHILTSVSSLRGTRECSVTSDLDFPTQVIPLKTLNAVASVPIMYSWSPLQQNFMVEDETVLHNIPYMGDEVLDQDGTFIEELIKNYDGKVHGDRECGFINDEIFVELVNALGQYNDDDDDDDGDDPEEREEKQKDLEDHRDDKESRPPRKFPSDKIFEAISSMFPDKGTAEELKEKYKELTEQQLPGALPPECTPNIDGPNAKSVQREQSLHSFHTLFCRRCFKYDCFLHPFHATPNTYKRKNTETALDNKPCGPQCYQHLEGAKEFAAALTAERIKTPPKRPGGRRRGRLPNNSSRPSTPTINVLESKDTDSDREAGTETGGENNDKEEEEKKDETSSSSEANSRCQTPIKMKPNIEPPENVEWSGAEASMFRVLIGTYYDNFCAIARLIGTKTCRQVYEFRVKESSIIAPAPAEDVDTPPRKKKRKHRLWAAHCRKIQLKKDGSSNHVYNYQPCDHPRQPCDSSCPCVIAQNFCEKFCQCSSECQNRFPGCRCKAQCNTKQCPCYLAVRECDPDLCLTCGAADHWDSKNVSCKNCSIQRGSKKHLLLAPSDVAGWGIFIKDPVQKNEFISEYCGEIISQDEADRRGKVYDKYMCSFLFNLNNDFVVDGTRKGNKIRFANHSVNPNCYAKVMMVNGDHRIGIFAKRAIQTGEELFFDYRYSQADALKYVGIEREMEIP
Chain of EZH2-A677G (O75530 whole entry partner): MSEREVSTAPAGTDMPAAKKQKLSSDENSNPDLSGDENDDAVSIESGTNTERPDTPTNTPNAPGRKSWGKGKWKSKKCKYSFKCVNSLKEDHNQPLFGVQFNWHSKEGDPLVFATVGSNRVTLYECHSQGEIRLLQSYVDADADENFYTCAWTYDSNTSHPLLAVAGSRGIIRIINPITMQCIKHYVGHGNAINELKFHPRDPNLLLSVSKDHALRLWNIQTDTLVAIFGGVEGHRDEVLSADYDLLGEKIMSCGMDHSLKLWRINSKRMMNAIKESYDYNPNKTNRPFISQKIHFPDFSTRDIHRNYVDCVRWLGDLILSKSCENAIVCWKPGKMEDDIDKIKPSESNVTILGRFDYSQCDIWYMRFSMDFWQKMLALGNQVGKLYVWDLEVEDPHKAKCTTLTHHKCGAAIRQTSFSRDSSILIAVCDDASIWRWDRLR
Chain of EZH2-A677G (Q15022 whole entry partner): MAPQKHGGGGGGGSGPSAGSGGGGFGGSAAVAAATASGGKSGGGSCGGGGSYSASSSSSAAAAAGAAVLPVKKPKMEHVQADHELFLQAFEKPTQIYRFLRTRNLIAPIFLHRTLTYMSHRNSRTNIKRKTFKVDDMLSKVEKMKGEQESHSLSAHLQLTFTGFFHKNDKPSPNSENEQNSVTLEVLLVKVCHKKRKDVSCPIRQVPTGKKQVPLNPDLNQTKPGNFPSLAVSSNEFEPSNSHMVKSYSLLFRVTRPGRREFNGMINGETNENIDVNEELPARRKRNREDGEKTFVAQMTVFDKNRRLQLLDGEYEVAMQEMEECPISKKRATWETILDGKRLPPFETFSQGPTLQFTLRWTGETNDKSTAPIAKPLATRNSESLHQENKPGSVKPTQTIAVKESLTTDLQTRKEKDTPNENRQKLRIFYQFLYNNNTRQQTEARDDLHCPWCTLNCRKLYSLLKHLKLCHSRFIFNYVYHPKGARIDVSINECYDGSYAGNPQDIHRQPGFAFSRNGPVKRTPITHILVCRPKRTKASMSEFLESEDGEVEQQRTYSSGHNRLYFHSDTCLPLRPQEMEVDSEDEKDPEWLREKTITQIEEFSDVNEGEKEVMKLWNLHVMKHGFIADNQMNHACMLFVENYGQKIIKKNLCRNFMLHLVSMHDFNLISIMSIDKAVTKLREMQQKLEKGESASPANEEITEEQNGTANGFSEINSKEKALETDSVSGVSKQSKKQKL
Chain of EZH2-A677G (Q09028 whole entry partner): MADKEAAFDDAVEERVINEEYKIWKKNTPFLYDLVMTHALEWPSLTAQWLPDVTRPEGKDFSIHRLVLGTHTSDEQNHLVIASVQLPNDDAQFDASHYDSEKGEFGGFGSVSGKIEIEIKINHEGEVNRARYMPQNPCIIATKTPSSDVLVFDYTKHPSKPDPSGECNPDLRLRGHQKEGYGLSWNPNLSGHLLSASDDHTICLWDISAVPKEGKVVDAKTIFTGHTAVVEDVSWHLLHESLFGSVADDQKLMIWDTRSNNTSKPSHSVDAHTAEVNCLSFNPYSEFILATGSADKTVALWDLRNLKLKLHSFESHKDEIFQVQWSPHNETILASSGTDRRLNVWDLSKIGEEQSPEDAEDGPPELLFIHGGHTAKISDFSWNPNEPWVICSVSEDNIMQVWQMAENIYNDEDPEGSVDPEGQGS
Chain of EZH2-A677G (Q6ZN18 whole entry partner): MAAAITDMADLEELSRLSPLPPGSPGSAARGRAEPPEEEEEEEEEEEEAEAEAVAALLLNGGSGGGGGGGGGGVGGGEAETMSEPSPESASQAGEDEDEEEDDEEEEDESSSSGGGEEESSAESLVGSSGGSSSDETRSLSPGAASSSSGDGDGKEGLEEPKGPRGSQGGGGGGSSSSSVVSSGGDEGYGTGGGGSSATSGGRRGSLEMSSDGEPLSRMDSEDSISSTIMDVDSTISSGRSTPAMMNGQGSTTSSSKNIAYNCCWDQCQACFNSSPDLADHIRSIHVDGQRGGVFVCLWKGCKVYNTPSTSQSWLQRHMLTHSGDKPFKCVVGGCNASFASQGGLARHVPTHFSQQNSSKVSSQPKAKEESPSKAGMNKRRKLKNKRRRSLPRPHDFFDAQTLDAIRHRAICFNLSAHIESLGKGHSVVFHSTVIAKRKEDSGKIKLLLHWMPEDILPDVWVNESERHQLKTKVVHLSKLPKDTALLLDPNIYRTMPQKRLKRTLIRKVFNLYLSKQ
Background: Time-resolved FRET reads energy transfer from a long-lived donor to a nearby acceptor.

This is an account of results in patent publication US10759787B2, “Benzofuran derivative, preparation method thereof and use thereof in medicine” (Jiangsu Hengrui Medicine Co., Ltd., priority 2015, dated 2020).

In general, IC50 refers to the point on the concentration scale where inhibition reaches its midpoint.

Consider `CCN(c1cc2oc(CN3CCCCC3)cc2c(C(=O)NCc2c(OC)cc(C)[nH]c2=O)c1C)C1CCOCC1` [Example 4, 6-(Ethyl(tetrahydro-2H-pyran-4-yl)amino)-N-((4-methoxy-6-methyl-2-oxo-1,2-dihydropyridin-3-yl)methyl)-5-methyl-2-(piperidin-1-ylmethyl)benzofuran-4-carboxamide], for which the IC50 with Pfeiffer cells was determined as 19 nM; at EZH2-A677G, 14 nM.
For `CCc1c(N(CC)C2CCOCC2)cc2oc(CN3CCN(C(C)C)CC3)cc2c1C(=O)NCc1c(OC)cc(C)[nH]c1=O` [Example 5, 5-Ethyl-6-(ethyl(tetrahydro-2H-pyran-4-yl)amino)-2-((4-isopropylpiperazin-1-yl)methyl)-N-((4-methoxy-6-methyl-2-oxo-1,2-dihydropyridin-3-yl)methyl)benzofuran-4-carboxamide], in that order: 19 nM and 1.2 nM.
Taken in the same sequence, the figures for `CCc1c(N(CC)C2CCOCC2)cc2oc(CN3CCOCC3)cc2c1C(=O)NCc1c(OC)cc(C)[nH]c1=O` [Example 6, 5-Ethyl-6-(ethyl(tetrahydro-2H-pyran-4-yl)amino)-N-((4-methoxy-6-methyl-2-oxo-1,2-dihydropyridin-3-yl)methyl)-2-(morpholinomethyl)benzofuran-4-carboxamide] were 3 nM and 7.8 nM.
Taken in the same sequence, the figures for `CCc1c(N(CC)C2CCOCC2)cc2oc(CN3CCC(F)(F)CC3)cc2c1C(=O)NCc1c(OC)cc(C)[nH]c1=O` [Example 7, 2-((4,4-Difluoropiperidin-1-yl)methyl)-5-ethyl-6-(ethyl(tetrahydro-2H-pyran-4-yl)amino)-N-((4-methoxy-6-methyl-2-oxo-1,2-dihydropyridin-3-yl)methyl)benzofuran-4-carboxamide] were 11 nM and 3.5 nM.
In the case of `CCc1c(N(CC)C2CCOCC2)cc2oc(CN3CCCC3)cc2c1C(=O)NCc1c(OC)cc(C)[nH]c1=O` [Example 8, 5-Ethyl-6-(ethyl(tetrahydro-2H-pyran-4-yl)amino)-N-((4-methoxy-6-methyl-2-oxo-1,2-dihydropyridin-3-yl)methyl)-2-(pyrrolidin-1-ylmethyl)benzofuran-4-carboxamide], the IC50 is 12 nM in the experiment with Pfeiffer cells and 6.2 nM at EZH2-A677G.
In the case of `CCc1c(N(CC)C2CCOCC2)cc2oc(C3CCN(C(C)C)CC3)cc2c1C(=O)NCc1c(OC)cc(C)[nH]c1=O` [Example 10, 5-Ethyl-6-(ethyl(tetrahydro-2H-pyran-4-yl)amino)-2-(1-isopropylpiperidin-4-yl)-N-((4-methoxy-6-methyl-2-oxo-1,2-dihydropyridin-3-yl)methyl)benzofuran-4-carboxamide], the results for the IC50 with Pfeiffer cells and on EZH2-A677G were 5 nM and 1.7 nM, respectively.
As to `CCc1c(N(CC)C2CCOCC2)cc2oc(C3CCCC3)cc2c1C(=O)NCc1c(C)cc(C)[nH]c1=O` [Example 14, 2-Cyclopentyl-N-((4,6-dimethyl-2-oxo-1,2-dihydropyridin-3-yl)methyl)-5-ethyl-6-(ethyl(tetrahydro-2H-pyran-4-yl)amino)benzofuran-4-carboxamide], the IC50 on EZH2-A677G was found to be 9.6 nM.
Take `CCN(c1cc2occc2c(C(=O)NCc2c(OC)cc(C)[nH]c2=O)c1Cl)C1CCOCC1` [Example 22, 5-Chloro-6-(ethyl(tetrahydro-2H-pyran-4-yl)amino)-N-((4-methoxy-6-methyl-2-oxo-1,2-dihydropyridin-3-yl)methyl)benzofuran-4-carboxamide]: on EZH2-A677G, the half-inhibitory concentration (IC50) stood at 6.5 nM.
Still for that read-out and setting: next, `CCc1c(N(CC2CC2)C2CCN(CC(F)(F)F)CC2)cc2occc2c1C(=O)NCc1c(OC)cc(C)[nH]c1=O` [Example 34, 6-((Cyclopropylmethyl)(1-(2,2,2-trifluoroethyl)piperidin-4-yl)amino)-5-ethyl-N-((4-methoxy-6-methyl-2-oxo-1,2-dihydropyridin-3-yl)methyl)benzofuran-4-carboxamide]: 14 nM.
